Experimental data from patent publication US20080234368A9, “Therapeutic compositions and methods of use” (Trustees of Dartmouth College, priority 1998, published 2008).

How the values were obtained:
[1] = test system: LPS-induced NO production in rat microglia; test: LPS-induced NO production in primary microglial cultures; assay type: cell-based; conditions: for inhibition of LPS induction of NO production: LPS 5 ng/ml, 18 h
Method: For the following examples, stock solutions of CDDO (0.01 M) were made in DMSO and aliquots frozen at −20° C. Serial dilutions were made in DMSO before addition to cell culture media. Primary rat microglia and hippocampal neurons were isolated and cultured as described by Flaris et al., 1993 and Ren and Flanders, 1996.
The roles of inflammatory mediators, as well as aberrant programs for cell survival and apoptosis, in the genesis of cancer and Alzheimer's Disease are now undergoing serious investigation (McGeer and McGeer, 1995; Merrill and Benveniste, 1996; Akama et al., 1998). CDDO was tested in this example as a suppressor of de novo formation of iNOS in cultured microglia (the resident macrophages of the brain), as well as its ability to protect cultured hippocampal neurons from cell death induced by β-amyloid. […] Thus, LPS (5 ng/ml) induced iNOS in primary microglial cultures and caused a 27-fold increase in production of NO within 18 h. Concomitant treatment of these cultures with CDDO at either 10^−6 or 10 ^−7 M inhibited this induction by 73% and 52%, respectively. We have also explored the possibility that CDDO can protect cultured hippocampal neurons from cell death induced by the peptide β-amyloid, since NO has been implicated (Akama et al., 1998) in the neurotoxic actions of this peptide which is central to the pathogenesis of Alzheimer's disease (Selkoe, 1997). Hippocampal neurons were isolated and cultured from 16 day rat embryos and then treated with CDDO for 24 h before adding the β-amyloid peptide fragment, amino acids 25-35, at a final concentration of 10 μM. This dosing with β-amyloid alone caused death of more than half of the neurons in the culture within 24 h, as measured by MTT assay.

iNOS = test: Western blot for iNOS protein in stimulated primary macrophages; assay type: cell-based, mouse; conditions: concentrations of 1 μM or less; IFN-γ 10 ng/ml, LPS 2 ng/ml, 12 h
Method: (§1) FIG. 14(A) illustrates Western blots; primary mouse macrophages; IFN-γ, 10 ng/ml; LPS, 2 ng/ml were added to cultures together with triterpenoids or dexamethasone (concentrations shown as […]); cells were harvested at 12 h. FIG. 14(B) illustrates Northern blots, RAW 264.7 macrophage-like cell line. IFN-γ, 10 ng/ml; LPS, 1 ng/ml; TNF-α, 10 ng/ml, were added to cultures together with CDDO or dexamethasone. RNA prepared after 12 h; GAPDH used as a loading control. FIG. 14(C) illustrates suppression of production of NO and PGEF in primary macrophages. For NO studies, cells were treated with IFN-γ, 10 ng/ml, together with CDDO (M), dexamethasone (O), TP-82 (□), or oleanolic acid (A). After 48 h, supernatants were analyzed for NO by the Griess reaction. For PGEF studies, cells were treated with IFN-γ, 5 ng/ml, and LPS, 5 ng/ml, together with the same set of inhibitors. After 48 h, PGE was measured in supernatants by immunoassay. Control values (no inhibition) for NO and PGE2 were 4.7 nmol/[…] and 2.2 ng/ml/2×10^5 cells, respectively. FIGS. (14D) and (14E) illustrate (human colon myofibroblasts) ^18Co cells grown in MEM/10% FBS; other methods are the same as reported above for macrophages. FIG. 14(D) illustrates Northern blots showing dose-response for suppression of COX-2 mRNA after induction with IL-1β (30 pg/ml). CDDO was added together with IL-1. […]

COX-2 = test: Western blot for IL-1β-induced COX-2 protein in 18Co colon myofibroblasts; assay type: cell-based, human; conditions: 18Co cells, IL-1β 30 pg/ml
Method: as §1

[2] = test system: PC12 pheochromocytoma cells; test: Neuronal differentiation / neurite outgrowth, image analysis; assay type: cell-based, rat
Method: CDDO induces monocytic differentiation in the poorly differentiated LCDB acute myelogenous leukemia cell line, derived from a chemotherapy-resistant patient at the NCI Pediatric Oncology Branch. FIG. 11 illustrates LCDB cells seeded in RPMI 1640/2% FBS, either alone (11A), with 2.5 ng/ml TGF-β1 (11B), with 10^−8 M CDDO (11C), or with both TGF-β1 and CDDO (11D). After 48 h, cytospin slide preparations were made and stained for α-naphthyl acetate esterase activity (kit from Sigma). PC12 cells were cultured for 5 days in gridded dishes in DMEM/10% FBS and 5% horse serum (Smith et al., 1997), either alone (11E), with 100 ng/ml 7S NGF (11F), with 10^−6 M CDDO (11G), or with both NGF and CDDO (11H). […] Methods for quantitative image analysis of size of cells and neurites have been described (De 1a Torre et al., 1997). Control cells in FIG. 11E are approximately 10 μm in diameter. 3T3-L1 cells were grown to confluency in DMEM/5% calf serum, and then treated once with CDDO in DMEM/10% FBS (FIG. 12A) or with CDDO and/or LG100268 in DMEM/10% FBS (FIG. 12B). Every two days thereafter, medium was changed to DMEM/10% FBS, without added CDD0 or LG100268. Cells were harvested on day 8 (FIG. 12A) or day 6 (FIG. 12B), and GPDH was measured in lysates, using a standard assay for consumption of NADH at 340 nm (Wise and Green, 1979).
The rat pheochromocytoma cell line, PC12, has been widely used to study neuronal development and differentiation. Treatment of these tumor cells with NGF is known to induce a neuronal phenotype, with extensive neurite outgrowth (Greene and Rischler, 1976; Guroff 1985). CDDO markedly potentiates these effects of NGF. FIGS. 11E and F show the induction of neurite outgrowth by NGF (100 ng/ml). […] When used in combination with NGF, CDDO (FIG. 11H) almost doubled the number of primary neurites/cell (from 1.2±0.2 S.E.M. to 2.1±0.1, p<0.001), and caused a greater than 3-fold increase in length of neurites (from 28±6 to 99±9 microns, p<0.001), and a 5-fold increase in neurite branching/cell (from 0.23±0.06 to 1.13±0.08, p<0.001). Thus, CDDO enhances neuronal differentiation of PC12 cells by increasing cell size, as well as the extent and complexity of neurite arborization.

[3] = CDDO 10^−6 M in combination with NGF 100 ng/ml, 5 days

CC1(C)CC[C@]2(C(=O)O)CC[C@]3(C)[C@H](C(=O)C=C4[C@@]5(C)C=C(C#N)C(=O)C(C)(C)[C@@H]5CC[C@]43C)[C@@H]2C1 [Compound 6, 2-cyano-3,12-dioxoolean-1,9-dien-28-oic acid]
inhibition of LPS induction of NO production ([1]; CDDO 10^−6 M): 73%
inhibition of LPS induction of NO production ([1]; CDDO 10^−7 M): 52%
activity on LPS-induced NO production compared with dexamethasone (FIG. 2) ([1]; rat microglia cells): favorable to that of dexamethasone
expression of iNOS protein (iNOS): blocked expression
induction of COX-2 protein (COX-2): blocked induction
cell morphology ([2]; CDDO 10^−6 M by itself, 5 days): larger, flatter morphology
neurite formation ([2]; CDDO 10^−6 M by itself, 5 days): does not induce neurite formation
length of neurites [2, 3]: 99±9 microns
neurite branching/cell [2, 3]: 1.13±0.08
number of primary neurites/cell ([2]; CDDO 10^−6 M in combination with NGF 100 ng/ml, 5 days, ± S.E.M.): 2.1±0.1
increase in length of neurites over NGF alone ([2]; CDDO in combination with NGF): greater than 3 fold
increase in neurite branching/cell over NGF alone ([2]; CDDO in combination with NGF): 5 fold
